Reference: ChEMBL document CHEMBL4680208, “Sulfone derivatives enter the cytoplasm of Candida albicans sessile cells” (Eur J Med Chem, 2020)
In brackets after ≈: the same amount, converted by molar mass. Activity calls are given as the source filed them. The calls are words filed in the database; no cut-off is given here.

Key:
Candida albicans [1] = experiment: Antifungal activity against Candida albicans 90028 assessed as fungal growth inhibition measured after 48 hrs by microdilution method; assay type: functional
Candida albicans [2] = experiment: Induction of plasma membrane disruption in Candida albicans assessed as accidental type cell death at 0.25 ug/ml measured after 18 hrs by Annexin V-FITC/propidium iodide staining based flow cytometry (reference value: 1.74 +/- 1.37%); conditions: dose 0.25 µg/ml
Candida albicans [3] = experiment: Antifungal activity against Candida albicans 90028 assessed as fungal growth inhibition at 4 ug/ml measured after 18 hrs by microdilution method relative to control; assay type: functional; conditions: read-out: GI
Candida albicans [4] = experiment: Antifungal activity against Candida albicans 90028 assessed as fungal growth inhibition at 2 ug/ml measured after 18 hrs by microdilution method relative to control; assay type: functional; conditions: read-out: GI
Candida albicans [5] = experiment: Antifungal activity against Candida albicans 90028 assessed as fungal growth inhibition at 0.0625 ug/ml measured after 18 hrs by microdilution method relative to control; assay type: functional; conditions: read-out: GI
Candida albicans [6] = experiment: Antifungal activity against Candida albicans 90028 assessed as fungal growth inhibition at 2 ug/ml measured after 48 hrs by microdilution method relative to control; assay type: functional; conditions: read-out: GI
Candida albicans [7] = experiment: Anti-adhesive activity against Candida albicans assessed as reduction in […] adhesion to human TR146 cells at 0.25 ug/ml incubated for 2 hrs prior to cell infection and measured after 2 hrs by colony counting method relative to control; assay type: functional; set-up: scale not given: the % may be the effect or the level left; conditions: dose 0.25 µg/ml; time 4 hrs
Candida albicans [8] = experiment: Antifungal activity against Candida albicans 90028 assessed as fungal growth inhibition at 0.5 ug/ml measured after 18 hrs by microdilution method relative to control; assay type: functional; conditions: read-out: GI
Candida albicans [9] = experiment: Antifungal activity against Candida albicans 90028 assessed as fungal growth inhibition at 0.25 ug/ml measured after 48 hrs by microdilution method relative to control; assay type: functional; conditions: read-out: GI
Candida albicans [10] = experiment: Antifungal activity against Candida albicans 90028 infected in Galleria mellonella larvae at 16 ug/ml by H and E staining based histological analysis; assay type: functional, organism-based; conditions: dose 16.0 µg/ml
Candida albicans [11] = experiment: Fungicidal activity against Candida albicans 90028 preincubated for 48 hrs followed by plating on SD agar and measured after 48 hrs; assay type: functional; conditions: time 96 hrs
Candida albicans [12] = experiment: Antifungal activity against Candida albicans 90028 assessed as fungal growth inhibition at 0.0625 ug/ml measured after 48 hrs by microdilution method relative to control; assay type: functional; conditions: read-out: GI
Candida albicans [13] = experiment: Antibiofilm activity against Candida albicans 90028 assessed as cell killing at 256 ug/ml by XTT assay relative to control; assay type: functional; conditions: dose 256 µg/ml
Candida albicans [14] = experiment: Antifungal activity against Candida albicans 90028 assessed as fungal growth inhibition at 8 ug/ml measured after 18 hrs by microdilution method relative to control; assay type: functional; conditions: read-out: GI
[15] = Toxicity in Galleria mellonella larvae assessed as survival at 16 ug/ml relative to control; conditions: at 16 µg/mL
Candida albicans [16] = experiment: Antifungal activity against Candida albicans 90028 assessed as fungal growth inhibition at 1 ug/ml measured after 18 hrs by microdilution method relative to control; assay type: functional; conditions: read-out: GI
[17] = Induction of adhesive activity against Candida albicans assessed as increase in […] adhesion to human TR146 cells at 0.125 ug/ml incubated for 2 hrs prior to cell infection and measured after 2 hrs by colony counting method relative to control; assay type: cell-based; conditions: tr146, 2 h, dose 0.125 µg/ml
Candida albicans [18] = experiment: Antifungal activity against Candida albicans 90028 assessed as fungal growth inhibition at 0.25 ug/ml measured after 18 hrs by microdilution method relative to control; assay type: functional; conditions: read-out: GI
Candida albicans [19] = experiment: Antifungal activity against Candida albicans 90028 assessed as fungal growth inhibition at 0.0313 ug/ml measured after 48 hrs by microdilution method relative to control; assay type: functional; conditions: read-out: GI
Candida albicans [20] = experiment: Antibiofilm activity against Candida albicans 90028 assessed as increasing in cell killing by XTT assay; assay type: functional
Candida albicans [21] = experiment: Antifungal activity against Candida albicans 90028 assessed as fungal growth inhibition at 0.125 ug/ml measured after 48 hrs by microdilution method relative to control; assay type: functional; conditions: read-out: GI
Candida albicans [22] = experiment: Antifungal activity against Candida albicans 90028 assessed as fungal growth inhibition at 16 ug/ml measured after 18 hrs by microdilution method relative to control; assay type: functional; conditions: read-out: GI
Candida albicans [23] = experiment: Antifungal activity against Candida albicans 90028 assessed as fungal growth inhibition at 0.5 ug/ml measured after 48 hrs by microdilution method relative to control; assay type: functional; conditions: read-out: GI
Candida albicans [24] = experiment: Antifungal activity against Candida albicans 90028 assessed as fungal growth inhibition at 0.125 ug/ml measured after 18 hrs by microdilution method relative to control; assay type: functional; conditions: read-out: GI
Candida albicans [25] = experiment: Antifungal activity against Candida albicans 90028 assessed as fungal growth inhibition at 8 ug/ml measured after 48 hrs by microdilution method relative to control; assay type: functional; conditions: read-out: GI
Vero [26] = experiment: Cytotoxicity against African green monkey Vero cells at 0.25 to 512 ug/ml by XTT assay relative to control; assay type: cell-based; conditions: chlorocebus sabaeus, at 0.25 to 512 µg/mL, dose 0.25-512 µg/ml
Candida albicans [27] = experiment: Antifungal activity against Candida albicans 90028 assessed as fungal growth inhibition at 16 ug/ml measured after 48 hrs by microdilution method relative to control; assay type: functional; conditions: read-out: GI
Candida albicans [28] = experiment: Antifungal activity against Candida albicans 90028 assessed as fungal growth inhibition at 4 ug/ml measured after 48 hrs by microdilution method relative to control; assay type: functional; conditions: read-out: GI
Candida albicans [29] = experiment: Antifungal activity against Candida albicans 90028 assessed as fungal growth inhibition at 0.0313 ug/ml measured after 18 hrs by microdilution method relative to control; assay type: functional; conditions: read-out: GI
[30] = Cytotoxicity against human MRC5 cells by CellTiter 96 Aqueous One Solution Reagent based assay; assay type: cell-based
Candida albicans [31] = experiment: Antifungal activity against Candida albicans 90028 assessed as fungal growth inhibition at 1 ug/ml measured after 48 hrs by microdilution method relative to control; assay type: functional; conditions: read-out: GI
[32] = Cytotoxicity against human TR146 cells assessed as induction of lysosomal membrane permeabilization at 16 ug/ml measured after 18 hrs by AO/propidium iodide staining based confocal laser scanning microscopy; assay type: cell-based; conditions: tr146, 18 h, dose 16 µg/ml
Candida albicans [33] = experiment: Antibiofilm activity against Candida albicans 90028 assessed as cell killing at 128 ug/ml by XTT assay relative to control; assay type: functional; conditions: dose 128 µg/ml
[34] = Induction of adhesive activity against Candida albicans assessed as increase in […] adhesion to human TR146 cells at 2 ug/ml incubated for 2 hrs prior to cell infection and measured after 2 hrs by colony counting method relative to control; assay type: cell-based; conditions: tr146, 4 h, dose 2 µg/ml
Vero [35] = experiment: Cytotoxicity against African green monkey Vero cells at 0.25 to 8 ug/ml after 18 hrs by XTT assay relative to control; assay type: cell-based; conditions: chlorocebus sabaeus, at 0.25 to 8 µg/mL, dose 0.25-8 µg/ml
[36] = Cytotoxicity against African green monkey Vero cells by XTT assay; assay type: cell-based; conditions: chlorocebus sabaeus
Candida albicans [37] = experiment: Antifungal activity against Candida albicans 90028 infected in Galleria mellonella larvae assessed as increase in larvae survival at MFC measured 96 hrs post-infection relative to control; assay type: functional
Candida albicans [38] = experiment: Antifungal activity against Candida albicans 90028 infected in Galleria mellonella larvae at 4 ug/ml by H and E staining based histological analysis; assay type: functional, organism-based; conditions: dose 4.0 µg/ml
Candida albicans [39] = experiment: Induction of plasma membrane disruption in Candida albicans assessed as accidental type cell death at 4 ug/ml measured after 18 hrs by Annexin V-FITC/propidium iodide staining based flow cytometry (reference value: 1.74 +/- 1.37%); conditions: dose 4.0 µg/ml
Candida albicans [40] = experiment: Induction of morphological changes in Candida albicans biofilm infected in human TR146 cells at 16 ug/ml measured after 20 hrs by fluorescence microscopy based QCM-D analysis; assay type: functional, organism-based; conditions: dose 16.0 µg/ml
Candida albicans [41] = experiment: Anti-adhesive activity against Candida albicans assessed as reduction in […] adhesion to human TR146 cells at 4 ug/ml incubated for 2 hrs prior to cell infection and measured after 2 hrs by colony counting method relative to control; assay type: functional; set-up: scale not given: the % may be the effect or the level left; conditions: dose 4 µg/ml; time 4 hrs

SMILES: NNc1ccc(S(=O)(=O)C(F)(F)Cl)cc1[N+](=O)[O-]
- MIC (Candida albicans [1]): inactive
- Activity (Candida albicans [2]): 83.1%
- inhibition of growth at 4 µg/mL (Candida albicans [3]): 100%
- inhibition of growth at 2 µg/mL (Candida albicans [4]): 100%
- inhibition of growth at 0.0625 µg/mL (Candida albicans [5]): 97.6%
- inhibition of growth at 2 µg/mL (Candida albicans [6]): 99.7%
- Activity (Candida albicans [7]): 5.88%
- inhibition of growth at 0.5 µg/mL (Candida albicans [8]): 99.9%
- inhibition of growth at 0.25 µg/mL (Candida albicans [9]): 98.4%
- Activity (Candida albicans [10]): inactive
- MFC (Candida albicans [11]): 0.25 µg/mL (≈ 0.829 µM)
- inhibition of growth at 0.0625 µg/mL (Candida albicans [12]): 95.8%
- Activity (Candida albicans [13]): 40%
- inhibition of growth at 8 µg/mL (Candida albicans [14]): 100%
- survival [15]: 93%
- inhibition of growth at 1 µg/mL (Candida albicans [16]): 99.9%
- fold change (FC) [17]: 11.76
- inhibition of growth at 0.25 µg/mL (Candida albicans [18]): 98.8%
- inhibition of growth at 0.0313 µg/mL (Candida albicans [19]): 94.2%
- CC50 (Candida albicans [20]): ≤ 128 µg/mL
- inhibition of growth at 0.125 µg/mL (Candida albicans [21]): 98.1%
- inhibition of growth at 16 µg/mL (Candida albicans [22]): 100%
- inhibition of growth at 0.5 µg/mL (Candida albicans [23]): 98.9%
- inhibition of growth at 0.125 µg/mL (Candida albicans [24]): 98.4%
- inhibition of growth at 8 µg/mL (Candida albicans [25]): 100%
- Activity (Vero [26]): 93.43%
- inhibition of growth at 16 µg/mL (Candida albicans [27]): 100%
- inhibition of growth at 4 µg/mL (Candida albicans [28]): 100%
- inhibition of growth at 0.0313 µg/mL (Candida albicans [29]): 93.8%
- CC50 [30]: ≥ 16 µg/mL
- inhibition of growth at 1 µg/mL (Candida albicans [31]): 98.2%

SMILES: NNc1ccc(S(=O)(=O)C(Cl)(Cl)Br)cc1[N+](=O)[O-]
- MIC90 (Candida albicans [1]): 2 µg/mL (≈ 5.28 µM)
- inhibition of growth at 4 µg/mL (Candida albicans [3]): 99.7%
- Activity [32]: Non-Toxic
- inhibition of growth at 2 µg/mL (Candida albicans [4]): 100%
- inhibition of growth at 0.0625 µg/mL (Candida albicans [5]): 99.4%
- Activity (Candida albicans [33]): 40%
- inhibition of growth at 2 µg/mL (Candida albicans [6]): 99.9%
- fold change (FC) [34]: 1.03
- inhibition of growth at 0.5 µg/mL (Candida albicans [8]): 99.7%
- inhibition of growth at 0.25 µg/mL (Candida albicans [9]): 98.9%
- MFC (Candida albicans [11]): 4 µg/mL (≈ 10.6 µM)
- inhibition of growth at 0.0625 µg/mL (Candida albicans [12]): 98.9%
- inhibition of growth at 8 µg/mL (Candida albicans [14]): 99.9%
- survival [15]: 93%
- inhibition of growth at 1 µg/mL (Candida albicans [16]): 99.8%
- inhibition of growth at 0.25 µg/mL (Candida albicans [18]): 98.9%
- Activity (Vero [35]): 43.12%
- inhibition of growth at 0.0313 µg/mL (Candida albicans [19]): 98.7%
- CC50 (Candida albicans [20]): ≤ 128 µg/mL
- inhibition of growth at 0.125 µg/mL (Candida albicans [21]): 98.9%
- CC50 [36]: ≥ 8 µg/mL
- inhibition of growth at 16 µg/mL (Candida albicans [22]): 99.9%
- Activity (Candida albicans [37]): 63.57%
- inhibition of growth at 0.5 µg/mL (Candida albicans [23]): 99.2%
- Activity (Candida albicans [38]): Active
- inhibition of growth at 0.125 µg/mL (Candida albicans [24]): 99.2%
- inhibition of growth at 8 µg/mL (Candida albicans [25]): 100%
- Activity (Candida albicans [39]): 79%
- Activity (Candida albicans [40]): Active
- inhibition of growth at 16 µg/mL (Candida albicans [27]): 100%
- inhibition of growth at 4 µg/mL (Candida albicans [28]): 100%
- inhibition of growth at 0.0313 µg/mL (Candida albicans [29]): 99.7%
- CC50 [30]: ≥ 16 µg/mL
- Activity (Candida albicans [41]): 100%
- inhibition of growth at 1 µg/mL (Candida albicans [31]): 99.2%
